What was measured:
5-Lipoxygenase = molecular target: T1, 5-Lipoxygenase (Rattus norvegicus, UniProt P12527); assay: 5-Lipoxygenase inhibitory activity: 5-HETE production in RBL-1 cells (HPLC); type: cell-based, rat (RBL-1, rat basophilic leukemia cells); conditions: arachidonic acid + A 23187, 37° C., 20 minutes, read-out: 5-HETE production inhibiting effect (IC50)
T1 construct: endogenous in cells; host or cells: RBL-1 (rat basophilic leukemia cells)
T1 sequence (P12527 1-673): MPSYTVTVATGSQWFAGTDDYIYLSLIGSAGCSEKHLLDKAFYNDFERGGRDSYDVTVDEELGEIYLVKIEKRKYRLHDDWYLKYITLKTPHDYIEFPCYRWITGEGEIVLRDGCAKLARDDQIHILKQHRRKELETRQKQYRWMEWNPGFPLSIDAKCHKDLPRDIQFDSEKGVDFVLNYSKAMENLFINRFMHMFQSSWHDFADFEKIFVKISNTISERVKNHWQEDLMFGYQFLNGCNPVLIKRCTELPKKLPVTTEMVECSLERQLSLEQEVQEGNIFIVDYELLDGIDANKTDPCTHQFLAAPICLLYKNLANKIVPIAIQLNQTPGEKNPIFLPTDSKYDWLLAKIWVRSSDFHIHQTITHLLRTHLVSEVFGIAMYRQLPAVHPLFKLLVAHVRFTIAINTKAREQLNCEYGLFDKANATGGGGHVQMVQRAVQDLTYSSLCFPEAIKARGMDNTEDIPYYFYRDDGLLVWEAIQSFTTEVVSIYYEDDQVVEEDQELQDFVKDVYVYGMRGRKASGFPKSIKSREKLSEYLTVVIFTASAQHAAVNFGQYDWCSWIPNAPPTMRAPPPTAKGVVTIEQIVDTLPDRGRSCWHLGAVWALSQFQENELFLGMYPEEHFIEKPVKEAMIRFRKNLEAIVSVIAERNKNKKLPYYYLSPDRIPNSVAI
Protocol: 5-Lipoxygenase Inhibitory Activity
10^7 RBL-1 cells (rat basophilic leukemia cells) were suspended in 0.5 ml of MCM (mast cell medium), and test solutions (made up of 0.5 ml of MCM, 50 μg of arachidonic acid, 10 μg of A 23187 (calcium ionophore, Eli Lilly) and 1 μM, 0.1 μM, 0.01 μM and0.001 μM as the final concentration of the quinone compound, respectively) prepared previously were added respectively to the suspension, followed by reaction at 37° C. for 20 minutes. After the conclusion of the reaction, 4 ml of ethanol and 1,4-dimethoxy-2-methyl-3-(3-methoxypropyl)naphthalene as the internal reference drug were added to the reaction solution, and the mixture was shaken thoroughly and allowed to stand at room temperature for 10 minutes. Then, it was centrifuged (2000 r.p.m.) for 10 minutes, and the supernatant fluid was separated and concentrated to dryness under reduced pressure. 0.5 Milliliter of 60% aqueous methanol was added to the concentrate, and 100 μl of the resulting solution was taken and subjected to high-performance liquid chromatography to determine amount of 5-HETE (5-hydroxyeicosatetraenoic acid). Determination of 5-HETE was made through measurement of an absorption at 237 nm with a UV absorption monitor.
The 5-HETE production inhibitory effect (IE) was expressed by [formula] wherein a is a peak height or peak area corrected by the peak for the internal reference when the quinone compound is not contained; b is a peak height or peak area corrected by the peak for the internal reference when the quinone compound is contained.

[1] = tested on: LTD4-induced bronchoconstriction; assay: Effect on LTD4-induced bronchoconstriction in guinea pigs; type: in vivo
Protocol: Effect on LTD4 -Induced Brochoconstriction in Guinea Pigs
Bronchoconstriction in guinea pigs was measured by the method of Konzett-Rossler[Naunyn-Schmiedeberg's Arch. exp. Path. Pharmak., 195, 71-74(1940)]. The animals were anesthetized with urethane (1.5 g/kg, intraperitoneally) and the trachea was cannulated. The animals were artificially ventilated by means of a respirator (Harvard apparatus rodent respirator) at a rate of 70 strokes/min and a constant volume of 5-7 ml. Inflation pressure was kept constantly at 10 cm H2 O. Changes in overflow of air from a side-arm of the cannula were recorded on Rectigraph-8S via a bronchospasm transducer for 15 min. LTD4 (10 μg/kg) was given into the […] through an indwelling cannula. Each specimen suspended in a 5% gum arabic solution was also given through the same cannula 1 or 24 hrs before the LTD4 administraction.

[2] = tested on: PAF-induced bronchoconstriction; assay: Effect on PAF-induced bronchoconstriction in guinea pigs; type: in vivo; conditions: one hour before PAF
Protocol: Platelet Activating Factor (PAF)-Induced Bronchoconstriction in Guinea Pigs
Experimental procedure in this experiment was the same as that in LTD4 -induced bronchoconstriction shown in Experimental example 7. PAF is an intraveneous dose of 1 μg/kg was used. Each specimen suspended in a 5% gum arabic solution was given orally one hour before the PAF administration.

[3] = tested on: SRS-A generation in rats pleural exudate; assay: Effects on SRS-A generation in pleural exudate in rat reversed passive Arthus pleurisy; type: in vivo
Protocol: Effects on Increased Vascular Permeability and Slow Reacting Substance of Anaphylaxis (SRS-A) Generation in Rat Reversed Passive Arthus Pleurisy
The rat reversed passive Arthus pleurisy was induced by the method of Yamamoto et al. Agents Actions, 5, 374-377 (1975)]. Rats were given 1 ml of saline containing 5 mg of egg albumin intravenously followed 0.2 ml of rabbit anti-agg albumin antiserum injected into the pleural cavity. Just after that, 0.5 ml of saline contained 1% Evans blue was administered intravenously to the rats. 30 Minutes later, the animals were killed by bleeding, and the pleural cavity was rinsed with 2 ml of saline. The concentrations of the dye in the pleural exudate and the peripheral blood were measured to calculate the volume of serum infiltrated into the pleural cavity. The vascular permeability (dye concentration in pleural cavity/dye concentration in peripheral blood) was expressed as μl serum/30 min. On the other hand, the amount of SRS-A generated in the pleural cavity was determined by the following procedures. 30 Minutes after induction of the pleurisy, the aminals were killed by bleeding and the pleural cavity was rinsed with 2 ml of saline. 9 Milliliter of cold absolute ethanol were immediately added to the rinsed solution. The mixture was allowed to stand at 4° C. for 30 min. After the mixture was centrifuged at 3000 r.p.m. for 10 min, the supernatant was concentrated by evaporation. The resulting residue was dissolved in 0.5 ml of saline. The amount of SRS-A generated was bioassayed using guinea pig ileum.

Row | SMILES | IC50 (5-Lipoxygenase) [nM] | % Inhibition of LTD4-induced bronchoconstriction ([1]; 0.313 mg/kg, 1 hr. before LTD4) [%] | % Inhibition of LTD4-induced bronchoconstriction ([1]; 1.25 mg/kg, 1 hr. before LTD4) [%] | % Inhibition of LTD4-induced bronchoconstriction ([1]; 5 mg/kg, 1 hr. before LTD4) [%] | % Inhibition of LTD4-induced bronchoconstriction ([1]; 5 mg/kg, 24 hrs. before LTD4) [%] | % Inhibition of PAF-induced bronchoconstriction ([2]; 0.313 mg/kg oral) [%] | % Inhibition of PAF-induced bronchoconstriction ([2]; 1.25 mg/kg oral) [%] | % Inhibition of PAF-induced bronchoconstriction ([2]; 5 mg/kg oral) [%] | % Inhibition of SRS-A generation in pleural exudate ([3]; 0.1 mg/rat) [%] | % Inhibition of SRS-A generation in pleural exudate ([3]; 1 mg/rat) [%] | % Inhibition of PAF-induced bronchoconstriction ([2]; 0.08 mg/kg oral) [%]
1 | CC1=C(C)C(=O)C(C(CCCCCC(=O)O)c2ccccc2)=C(C)C1=O (centres unmarked) [Compound No. 50, 7-(3,5,6-trimethyl-1,4-benzoquinon-2-yl)-7-phenylheptanoic acid] | 28 | 58 | 77 | 94 | 72 | 66 | 94 | 85 | 49 | 77 | 
2 | CC1=C(C)C(=O)C(C(CCCCCC(=O)O)c2ccc(C)cc2)=C(C)C1=O (centres unmarked) [Compound No. 93] | 90 | 73 | 83 | 85 | 53 | 87 | 70 |  | -6 | 56 | 58

— patent publication US5180742A, “Quinone derivatives, their production and use” (Takeda Chemical Industries, Ltd., priority 1984, dated 1993)
